The text below walks through data of US8952054B2, “Small molecule inhibitors of MUC1 and methods of identifying the same” (Dana-Farber Cancer Institute, Inc., priority 2010, dated 2015).

Each structure is given as a SMILES string.

The target in one data set is CYP2C9 (Homo sapiens, UniProt P11712). Conditions: cited from earlier work.
Data set [1] has as its system MCF-7 cells. The experiment in a line: MCF-7 cell number (MTS), caspase-9 cleavage, PI uptake and colony formation. To be noted: for colony formation: 2 weeks. The data set is classed as cell-based, human. The method, then:
FIGS. 14A-E—Apigenin suppresses MUC1 expression in MCF-7 cells. (FIG. 14A) MCF-7 cells were treated with DMSO vehicle, 75 μM apigenin or 75 μM baicalein for 3 d. Total RNA was assayed for MUC1 mRNA levels by qRTPCR. The results (mean+SD of 3 determinations) are expressed as relative MUC1 mRNA levels as compared to that obtained in cells treated with DMSO. (FIGS. 14B-C) MCF-7 cells were treated with the indicated concentrations of apigenin and baicalein for 3 days. Nuclear (FIG. 14B) and whole cell lysates (FIG. 14C) were immunoblotted with the indicated antibodies. D. Lysates from MCF-7 cells were infected to stably express a control lentivirus and one with a MUC1 shRNA were immunoblotted with the indicated antibodies. (FIG. 14E) The indicated MCF-7 cells were treated with […] apigenin for 3 d. Viable cell number was determined by the MTS assay. The results (mean+SD of 3 determinations) are expressed as percentage of control growth in the presence of DMSO.
FIGS. 15A-C—Apigenin inhibits MCF-7 clonogenic survival. (FIG. 15A) MCF-7 cells were treated with DMSO, 75 μM apigenin or 75 μM baicalein for 3 d. Lysates were immunoblotted with the indicated antibodies. (FIG. 15B) MCF-7 cells were treated with DMSO, 75 μM apigenin or 75 μM baicalein for 3 d, stained with propidium iodide and analyzed by flow cytometry. […] (FIG. 15C) MCF-7 cells were plated at a density of 1000 cells/6 cm dish. At 24 h after seeding, DMSO or apigenin at concentrations of 25, 50 and 75 μM was added to the medium. After 2 weeks, colonies were stained with crystal violet. The results (mean+SD of 3 determinations) are expressed as percentage of control colony formation in the presence of DMSO.

In the next data set the test system is HCC1937 cells. The experiment in a line: HCC1937 viability (MTS). The data set is classed as cell-based, human. To be noted: HCC1937 (low to undetectable MUC1-C), 3 d. The method, then: FIGS. 16A-D—Effects of apigenin on breast cancer cells without and with endogenous MUC1 expression. (FIG. 16A) Lysates from human MCF-7, HCC1937 and BT474 cells were immunoblotted with the indicated antibodies. (FIG. 16B) BT474 cells were treated with indicated concentrations of apigenin and baicalein for 3 d, washed and then treated for an additional 3 d. Lysates were immunoblotted with the indicated antibodies. (FIG. 16C) BT474 (triangles) and HCC1937 (squares) cells were treated with apigenin for 3 d. Viable cell numbers were determined by MTS assay. The results (mean+SD of 3 determinations) are expressed as percentage of control growth in the presence of DMSO. (FIG. 16D) BT474 cells were plated at a density of 5000 cells/6 cm dish. At 24 h after seeding, DMSO or apigenin at concentrations of 25, 50 and 75 μM was added to the medium. After 2 weeks, colonies were stained with crystal violet. The results (mean+SD of 3 determinations) are expressed as percentage of control colony formation in the presence of DMSO.

The test system of the next data set is MCF-10A cells. The experiment in a line: Cell cycle distribution and growth of MCF-10A cells (peptide). The data set is classed as cell-based, human. To be noted: 5 μM. The method, then:
(§1) FIGS. 4A-E. Selectivity of MUC1/CQC for MUC1 expressing breast cancer cells. (FIG. 4A) ZR-75-1 cells were stably infected with an empty lentivirus (vector) or one expressing a MUC1 siRNA. Lysates for the infected cells were immunoblotted with the indicated antibodies. (FIG. 4B) ZR-75-1/vector cells were left untreated (diamonds), and ZR-75-1/vector (squares) and ZR-75-1/MUC1 siRNA (triangles) cells were treated with 5 μM MUC1/CQC peptide for the indicated times. Viable cell number was determined by trypan blue exclusion. (FIG. 4C) 293 cells were left untreated (diamonds), and treated with 5 μM MUC1/CQC (squares) or MUC1/AQA (triangles) for the indicated times. Viable cell number was determined by trypan blue exclusion. (FIG. 4D) MCF-10A cells were left untreated (left panel), and treated with 5 μM MUC1/CQC (middle panel) or MUC1/AQA (right panel). At 3 d, cells were analyzed for cell cycle distribution. […] Viable cell number was determined by trypan blue exclusion.
Human breast cancer ZR-75-1, ZR-75-1/vector, ZR-75-1/MUC1siRNA (Ren et al., 2004) cell lines were grown in RPMI1640 medium supplemented with 10% heat-inactivated fetal bovine serum (HI-FBS), 100 U/ml penicillin, and 100 μg/ml streptomycin (Invitrogen) in a humidified incubator at 37° C. and 5% CO2. […] Viability was determined by trypan blue exclusion. […]

Data set [2] relates to MCF-7 cells. In words: Cell cycle distribution and necrosis by flow cytometry, MCF-7. The data set is classed as cell-based, human. Conditions: MCF-7, 5 μM, 3 and 4 d. The procedure:
FIGS. 3A-D. MUC1/CQC peptide induces S phase arrest and necrosis. ZR-75-1 (FIGS. 2A-B) and MCF-7 (FIGS. 2C-D) cells were treated with 5 μM MUC1/CQC or MUC1/AQA for 3 and 4 d. Cells were fixed and analyzed for cell cycle distribution by flow cytometry (FIGS. 2A and 2C). The percentage of cells in G1, S and G2/M phases is included in the panels. Cells were also stained with propidium iodide and analyzed by flow cytometry for necrosis (FIGS. 2B and 2D). The percentage of necrotic cells is included in the panels.
Cells were harvested, washed with PBS, fixed with 80% ethanol, and incubated in PBS containing 40 μg/ml RNAse and 40 μg/ml propidium iodide for 30 min at 37° C. Cell cycle distribution was determined by flow cytometry. Sub-G1 DNA content was assessed by staining ethanol-fixed and citrate buffer-permeabilized cells with propidium iodide and monitoring by flow cytometry as described (Yin et al., 2007). For assessment of necrosis, cells were incubated with 1 μg/ml propidium iodide/PBS for 5 min at room temperature and then monitored by flow cytometry as described (Yin et al., 2007).
On the technique in general: Flow cytometry measures light scatter and fluorescence of single cells or particles in a stream.

In a further data set the test system is ZR-75-1/MUC1siRNA cells. In words: Viable cell number by trypan blue exclusion, ZR-75-1/MUC1siRNA. The data set is classed as cell-based, human. Conditions: 5 μM, versus ZR-75-1/vector. The procedure:
as §1
Human breast cancer ZR-75-1, ZR-75-1/vector, ZR-75-1/MUC1siRNA (Ren et al., 2004) cell lines were grown in RPMI1640 medium supplemented with 10% heat-inactivated fetal bovine serum (HI-FBS), 100 U/ml penicillin, and 100 μg/ml streptomycin (Invitrogen) in a humidified incubator at 37° C. and 5% CO2. […] Viability was determined by trypan blue exclusion.

Chain of CYP2C9 (P11712 whole entry, species assumed): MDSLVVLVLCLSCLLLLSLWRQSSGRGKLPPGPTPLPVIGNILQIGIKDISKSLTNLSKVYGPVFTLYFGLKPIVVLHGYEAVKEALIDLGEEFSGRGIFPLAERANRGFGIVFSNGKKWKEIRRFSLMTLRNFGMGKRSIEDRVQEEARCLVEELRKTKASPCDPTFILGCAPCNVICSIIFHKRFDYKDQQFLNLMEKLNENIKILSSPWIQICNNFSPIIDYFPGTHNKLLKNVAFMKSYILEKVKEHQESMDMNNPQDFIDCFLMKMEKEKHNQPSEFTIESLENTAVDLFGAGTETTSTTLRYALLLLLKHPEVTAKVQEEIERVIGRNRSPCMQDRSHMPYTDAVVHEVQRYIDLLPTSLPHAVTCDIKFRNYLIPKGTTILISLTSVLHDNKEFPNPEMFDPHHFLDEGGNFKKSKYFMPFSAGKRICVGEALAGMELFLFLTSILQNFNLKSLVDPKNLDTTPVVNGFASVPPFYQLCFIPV

In the case of `O=c1cc(-c2ccc(O)cc2)oc2cc(O)cc(O)c12` [Apigenin, 4′,5,7-trihydroxyflavone], the “inhibition of CYP2C9” value at CYP2C9 is on record as “potent inhibitor”. Further, in the data set on MCF-7 cells [1] (MCF-7, 25 μM), the colony formation entry is given as “substantial decrease in colonies”. Moreover, in the data set on MCF-7 cells [1] (MCF-7, 75 μM, 3 d), the caspase-9 cleavage entry is given as “cleavage of caspase-9” and the “cell membrane integrity (PI)” value is listed as “loss of cell membrane integrity”. Besides, the “effect of silencing MUC1 (shRNA) on apigenin-induced decreases in cell number” value in the data set on MCF-7 cells [1] (MCF-7, 75 µM, 3 d, MTS) was “partially decreased sensitivity”. In addition, the colony formation result with MCF-7 cells [1] (MCF-7, higher concentrations (50 and 75 μM)) is listed as “complete loss of survival”. The “viability (MTS)” value with HCC1937 cells is given as “not”.
For the compound `CC[C@H](C)[C@H](NC(=O)[C@H](CC(=O)O)NC(=O)[C@H](CC(C)C)NC(=O)[C@H](CCC(N)=O)NC(=O)CNC(=O)[C@H](Cc1ccc(O)cc1)NC(=O)[C@H](CC(N)=O)NC(=O)[C@H](CCCCN)NC(=O)[C@H](CCCNC(=N)N)NC(=O)[C@H](CCCNC(=N)N)NC(=O)[C@H](CS)NC(=O)[C@H](CCC(N)=O)NC(=O)[C@H](CS)NC(=O)[C@@H](CCCNC(=N)N)NC(=O)[C@@H](CCCNC(=N)N)NC(=O)[C@@H](CCCNC(=N)N)NC(=O)[C@@H](CCCNC(=N)N)NC(=O)[C@@H](CCCNC(=N)N)NC(=O)[C@@H](CCCNC(=N)N)NC(=O)[C@@H](CCCNC(=N)N)NC(=O)[C@@H](CCCNC(=N)N)NC(=O)[C@H](N)CCCNC(=N)N)C(=O)N[C@@H](Cc1ccccc1)C(=O)N1CCC[C@H]1C(=O)O` [MUC1/CQC], the “growth / viable cell number” value in the data set with MCF-10A cells is reported as “no effect”; with ZR-75-1/MUC1siRNA cells, “substantially less effect”. The cell cycle distribution result in the data set on MCF-10A cells (3 d) is recorded as “no effect”; in the data set on MCF-7 cells [2], “arrest of growth in S phase”. Also, the “necrosis (propidium iodide)” value in the data set on MCF-7 cells [2] was “induction of necrosis”.
